These results are taken from patent publication US10206399B2, “Herbicidal composition comprising uracil compound as active ingredient” (Dongbu Farm Hannong Co., Ltd., priority 2012, dated 2019).

The subject of one series is Echinochloa crus. Description: Dry field farming herbicidal composition test, plant mortality. The series is classed as in vivo.
For a further series, the system named is Digitaria sanguinalis. The description is as above. The series is classed as in vivo.
The next series relates to Abutilon theophrasti. The series is described as above. It counts as in vivo.
Another series deals with Aeschynomene indica. The description is as above. The series is classed as in vivo.
[1] abbreviates: Echinochloa, read-out: Echinochloa crus mortality, measured value.
[2] abbreviates: Digitaria sanguinalis, read-out: Digitaria sanguinalis mortality, measured value.
Setting [3] is: Abutilon theophrasti, read-out: Abutilon theophrasti mortality, measured value.
Where [4] appears, read: Aeschynomene indica, read-out: Aeschynomene indica mortality, measured value.

Like-named read-outs stand apart in the source and are kept apart here.

From the text for Abutilon theophrasti: (§1) X is % damage by uracil compound (a) of formula 1 at the rate of application of p kg/ha; Y is % damage by conventional herbicidal compound (b) at the rate of application of q kg/ha; and E is the expected damage caused by compounds (a) and (b) at a rate of application of p and q kg/ha.
(§2) The expected activity for a given combination of two herbicides can be calculated using equation 1 above.
From the text for Aeschynomene indica: as §1, §2
From the text for Digitaria sanguinalis: as §1, §2
From the text for Echinochloa crus: as §1, §2

As for `COc1nc(C)nc(NC(=O)NS(=O)(=O)c2cc(I)ccc2C(=O)O)n1` [Iodosulfuron], the pest or weed control at 1.25 g/ha with Echinochloa crus (setting [1]) came to 7%; with Digitaria sanguinalis (setting [2]) it was 12%; with Abutilon theophrasti (setting [3]), 13%; in the series on Aeschynomene indica (setting [4]) it was 12%. Further, the pest or weed control at 5 g/ha with Echinochloa crus (setting [1]) is 58%; in the series on Digitaria sanguinalis (setting [2]), 56%; in the series on Abutilon theophrasti (setting [3]), 61%; in the series on Aeschynomene indica (setting [4]), 47%. For the same molecule, the entries for the “Corn mortality, measured value” with corn (1.25 g/ha) and in the series with corn (5 g/ha) were 0 and 1, respectively.

Turning to `CS(=O)(=O)c1cc(C(F)(F)F)ccc1C(=O)c1cnoc1C1CC1` [Isoxaflutole], the pest or weed control at 12.5 g/ha was 14% in the series with Echinochloa crus (setting [1]), 10% with Digitaria sanguinalis (setting [2]), 12% in the series on Abutilon theophrasti (setting [3]) and 9% in the series on Aeschynomene indica (setting [4]). The pest or weed control at 25 g/ha came to 29% with Echinochloa crus (setting [1]), 24% in the series on Digitaria sanguinalis (setting [2]), 31% in the series on Abutilon theophrasti (setting [3]) and 28% in the series on Aeschynomene indica (setting [4]). In addition, the pest or weed control at 50 g/ha came out at 61% in the series on Echinochloa crus (setting [1]), 53% with Digitaria sanguinalis (setting [2]), 62% with Abutilon theophrasti (setting [3]) and 56% with Aeschynomene indica (setting [4]). Also, the “Corn mortality, measured value” in the series with corn (12.5 g/ha), in the series on corn (25 g/ha) and in the series with corn (50 g/ha) was 0 throughout.

On to `CS(=O)(=O)c1ccc(C(=O)C2C(=O)CCCC2=O)c([N+](=O)[O-])c1` [Mesotrione], for which the “Echinochloa crus mortality, measured value” in the series with Echinochloa crus (15 g/ha) came to 0; with Echinochloa crus (30 g/ha), 5; with Echinochloa crus (60 g/ha), 15. Besides, the pest or weed control at 15 g/ha in the series with Echinochloa crus (setting [1]) is 0%; in the series with Digitaria sanguinalis (setting [2]), 0%; in the series on Abutilon theophrasti (setting [3]), 15%; with Aeschynomene indica (setting [4]) it was 11%. Also, the pest or weed control at 30 g/ha in the series on Echinochloa crus (setting [1]) was determined as 5%; in the series on Digitaria sanguinalis (setting [2]) it was 5%; in the series with Abutilon theophrasti (setting [3]), 29%; in the series on Aeschynomene indica (setting [4]), 27%. For the same molecule, the pest or weed control at 60 g/ha in the series on Echinochloa crus (setting [1]) amounted to 15%; in the series with Digitaria sanguinalis (setting [2]), 10%; in the series with Abutilon theophrasti (setting [3]), 58%; in the series on Aeschynomene indica (setting [4]) it was 54%. In addition, the “Digitaria sanguinalis mortality, measured value” with Digitaria sanguinalis (15 g/ha) amounted to 0; with Digitaria sanguinalis (30 g/ha), 5; in the series on Digitaria sanguinalis (60 g/ha) it was 10. Further, the “Abutilon theophrasti mortality, measured value” was 15 with Abutilon theophrasti (15 g/ha), 29 with Abutilon theophrasti (30 g/ha) and 58 in the series on Abutilon theophrasti (60 g/ha). The entries for the “Aeschynomene indica mortality, measured value” in the series with Aeschynomene indica (15 g/ha), in the series on Aeschynomene indica (30 g/ha) and with Aeschynomene indica (60 g/ha) were 11, 27 and 54, respectively. Besides, the “Corn mortality (measured value)” value in the series on corn (15 g/ha) is 0; in the series with corn (30 g/ha) it was 0; with corn (60 g/ha) it was 1. Further, the figures for the “Corn mortality, measured value” in the series with corn (15 g/ha), in the series with corn (30 g/ha) and with corn (60 g/ha) were 0, 0 and 1, respectively.

In the case of `COc1cc(OC)nc(NC(=O)NS(=O)(=O)c2ncccc2C(=O)N(C)C)n1` [Nicosulfuron], the pest or weed control at 5 g/ha in the series with Echinochloa crus (setting [1]) worked out at 10%; in the series on Digitaria sanguinalis (setting [2]), 7%; in the series with Abutilon theophrasti (setting [3]) it was 8%; in the series with Aeschynomene indica (setting [4]), 11%. The pest or weed control at 10 g/ha with Echinochloa crus (setting [1]) was found to be 24%; in the series with Digitaria sanguinalis (setting [2]) it was 24%; in the series with Abutilon theophrasti (setting [3]), 26%; with Aeschynomene indica (setting [4]), 30%. Further, the pest or weed control at 20 g/ha in the series on Echinochloa crus (setting [1]) was found to be 50%; with Digitaria sanguinalis (setting [2]), 50%; in the series on Abutilon theophrasti (setting [3]), 62%; in the series on Aeschynomene indica (setting [4]) it was 65%. Moreover, the “Corn mortality, measured value” in the series with corn (5 g/ha), in the series with corn (10 g/ha) and with corn (20 g/ha) was 0 each time.
